Measurements from patent US10750743B2, “Pyridazinone herbicides” (E.I. DU PONT DE NEMOURS AND COMPANY, priority 2015, dated 2020).

How the values were obtained:
Format in all cases: in vivo
[1] = system: barnyardgrass (Echinochloa crus-galli); experiment: Test A preemergence, directed soil spray, visual injury rating; details: 0 is no effect, 100 is complete control
How it was run: (§1)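 Seeds sown in a loam soil–sand blend received a directed preemergence soil spray of test chemical in a non-phytotoxic solvent mixture with surfactant. Postemergence plants were sprayed at 2 to 10 cm, one- to two-leaf stage. After approximately 10 d in greenhouse, injury was visually rated 0 (no effect) to 100 (complete control) against untreated controls.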

[2] = system: foxtail, giant (giant foxtail, Setaria faberii); experiment: as above; details: 0 is no effect, 100 is complete control
How it was run: as §1

kochia (Kochia scoparia) [3] = experiment: as above; details: 0 is no effect, 100 is complete control
How it was run: as §1

[4] = system: pigweed (Amaranthus retroflexus); experiment: as above; details: 0 is no effect, 100 is complete control
How it was run: as §1

[5] = system: ragweed (common ragweed, Ambrosia elatior); experiment: as above; details: 0 is no effect, 100 is complete control
How it was run: as §1

[6] = system: ryegrass, It. (Italian ryegrass, Lolium multiflorum); experiment: as above; details: 0 is no effect, 100 is complete control
How it was run: as §1

[7] = system: barnyardgrass (Echinochloa crus-galli); experiment: Test B flooded paddy test, visual rating; details: Flood, 250 g ai/ha, applied to paddy water, rated after 13 to 15 d
How it was run: (§2)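 Plants at the 2-leaf stage were flooded to 3 cm above soil, and test compounds were applied directly into the paddy water, which was held at that depth throughout. After 13 to 15 d in a greenhouse, injury was rated visually against untreated controls on a 0–100 scale (0 no effect, 100 complete control).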

[8] = system: ducksalad (Heteranthera limosa); experiment: Test B flooded paddy test, visual rating; details: Flood, 250 g ai/ha, applied to paddy water, rated after 13 to 15 d
How it was run: as §2

rice (Oryza sativa) = experiment: Test B flooded paddy test, visual rating; details: Flood, 250 g ai/ha, applied to paddy water, rated after 13 to 15 d
How it was run: as §2

[9] = system: sedge, umbrella (small-flower umbrella sedge, Cyperus difformis); experiment: Test B flooded paddy test, visual rating; details: Flood, 250 g ai/ha, applied to paddy water, rated after 13 to 15 d
How it was run: as §2

[10] = system: barnyardgrass (Echinochloa crus-galli); experiment: Test A postemergence application, visual injury rating; details: 0 to 100 scale, 0 no effect, 100 complete control
How it was run: as §1

[11] = system: blackgrass (Alopecurus myosuroides); experiment: as above; details: 0 to 100 scale, 0 no effect, 100 complete control
How it was run: as §1

corn (Zea mays) = experiment: as above; details: for Corn plant response rating: 0 to 100 scale, 0 no effect, 100 complete control
How it was run: as §1

[12] = system: foxtail, giant (giant foxtail, Setaria faberii); experiment: as above; details: for Foxtail, Giant plant response rating: 0 to 100 scale, 0 no effect, 100 complete control
How it was run: as §1

[13] = system: galium (catchweed bedstraw, Galium aparine); experiment: as above; details: for Galium plant response rating: 0 to 100 scale, 0 no effect, 100 complete control
How it was run: as §1

kochia (Kochia scoparia) [14] = experiment: as above; details: for Kochia plant response rating: 0 to 100 scale, 0 no effect, 100 complete control
How it was run: as §1

[15] = system: pigweed (Amaranthus retroflexus); experiment: as above; details: for Pigweed plant response rating: 0 to 100 scale, 0 no effect, 100 complete control
How it was run: as §1

[16] = system: ragweed (common ragweed, Ambrosia elatior); experiment: as above; details: for Ragweed plant response rating: 0 to 100 scale, 0 no effect, 100 complete control
How it was run: as §1

[17] = system: ryegrass, It. (Italian ryegrass, Lolium multiflorum); experiment: as above; details: for Ryegrass, It. plant response rating: 0 to 100 scale, 0 no effect, 100 complete control
How it was run: as §1

[18] = system: wheat (Triticum aestivum); experiment: as above; details: for Wheat plant response rating: 0 to 100 scale, 0 no effect, 100 complete control
How it was run: as §1

[19] = 31 g ai/ha, 0 is no effect, 100 is complete control

Structure (SMILES) | Plant response rating (0 to 100 scale), Barnyardgrass ([1]; 125 g ai/ha) | Plant response rating (0 to 100 scale), Foxtail, Giant ([2]; 125 g ai/ha) | Plant response rating (0 to 100 scale), Kochia (kochia (Kochia scoparia) [3]; 125 g ai/ha) | Plant response rating (0 to 100 scale), Pigweed ([4]; 125 g ai/ha) | Plant response rating (0 to 100 scale), Ragweed ([5]; 125 g ai/ha) | Plant response rating (0 to 100 scale), Ryegrass, It. ([6]; 125 g ai/ha) | Barnyardgrass plant response rating (0 to 100 scale, 0 is no effect, 100 is complete control) [7] | Ducksalad plant response rating (0 to 100 scale, 0 is no effect, 100 is complete control) [8] | Rice plant response rating (0 to 100 scale, 0 is no effect, 100 is complete control) (rice (Oryza sativa)) | Sedge, Umbrella plant response rating (0 to 100 scale, 0 is no effect, 100 is complete control) [9] | Barnyardgrass plant response rating ([10]; 125 g ai/ha) | Blackgrass plant response rating ([11]; 125 g ai/ha) | Corn plant response rating (corn (Zea mays); 125 g ai/ha) | Foxtail, Giant plant response rating ([12]; 125 g ai/ha) | Galium plant response rating ([13]; 125 g ai/ha) | Kochia plant response rating (kochia (Kochia scoparia) [14]; 125 g ai/ha) | Pigweed plant response rating ([15]; 125 g ai/ha) | Ragweed plant response rating ([16]; 125 g ai/ha) | Ryegrass, It. plant response rating ([17]; 125 g ai/ha) | Wheat plant response rating ([18]; 125 g ai/ha) | further results
Cn1nc(Cl)c(O)c(-c2cccc3[nH]nnc23)c1=O [Compound 38] | 0 | 0 | 0 | 0 | 0 | 0 | 0 | 0 | 0 | 0 | 0 | 0 | 0 | 0 | 0 | 0 | 0 | 0 | 0 | 0 | Plant response rating (0 to 100 scale), Barnyardgrass ([1]; 31 g ai/ha): 0; Plant response rating (0 to 100 scale), Foxtail, Giant ([2]; 31 g ai/ha): 0; Plant response rating (0 to 100 scale), Kochia (kochia (Kochia scoparia) [3]; 31 g ai/ha): 0; Plant response rating (0 to 100 scale), Pigweed ([4]; 31 g ai/ha): 0; Plant response rating (0 to 100 scale), Ragweed ([5]; 31 g ai/ha): 0; Plant response rating (0 to 100 scale), Ryegrass, It. ([6]; 31 g ai/ha): 0; Barnyardgrass plant response rating ([10]; 31 g ai/ha): 0; Blackgrass plant response rating ([11]; 31 g ai/ha): 0; Corn plant response rating (corn (Zea mays); 31 g ai/ha): 0; Foxtail, Giant plant response rating ([12]; 31 g ai/ha): 0; Galium plant response rating ([13]; 31 g ai/ha): 0; Kochia plant response rating (kochia (Kochia scoparia) [14]; 31 g ai/ha): 0; Pigweed plant response rating ([15]; 31 g ai/ha): 0; Ragweed plant response rating ([16]; 31 g ai/ha): 0; Ryegrass, It. plant response rating ([17]; 31 g ai/ha): 0; Wheat plant response rating ([18]; 31 g ai/ha): 0
CCC(=O)Oc1c(C)nn(C)c(=O)c1-c1cccc2cc(C)oc12 [Compound 26] | 0 | 0 | 30 | 10 | 10 | 80 | 0 | 0 | 0 | 0 | 10 | 20 | 0 | 30 | 90 | 20 | 40 | 30 | 80 | 0 | Plant response rating (0 to 100 scale), Barnyardgrass ([1]; 31 g ai/ha): 0; Plant response rating (0 to 100 scale), Foxtail, Giant ([2]; 31 g ai/ha): 0; Plant response rating (0 to 100 scale), Kochia (kochia (Kochia scoparia) [3]; 31 g ai/ha): 0; Plant response rating (0 to 100 scale), Pigweed ([4]; 31 g ai/ha): 0; Plant response rating (0 to 100 scale), Ragweed ([5]; 31 g ai/ha): 0; Plant response rating (0 to 100 scale), Ryegrass, It. ([6]; 31 g ai/ha): 10; Barnyardgrass plant response rating ([10]; 31 g ai/ha): 0; Blackgrass plant response rating ([11]; 31 g ai/ha): 0; Corn plant response rating (corn (Zea mays); 31 g ai/ha): 0; Foxtail, Giant plant response rating ([12]; 31 g ai/ha): 0; Galium plant response rating ([13]; 31 g ai/ha): 70; Kochia plant response rating (kochia (Kochia scoparia) [14]; 31 g ai/ha): 20; Pigweed plant response rating ([15]; 31 g ai/ha): 30; Ragweed plant response rating ([16]; 31 g ai/ha): 0; Ryegrass, It. plant response rating ([17]; 31 g ai/ha): 50; Wheat plant response rating ([18]; 31 g ai/ha): 0
CCc1sc2ncccc2c1-c1c(OC(=O)C2CC2)c(C)nn(C)c1=O [Compound 21] | 0 | 0 | 0 | 0 | 0 | 0 | 0 | 0 | 0 | 0 | 0 | 0 | 0 | 0 | 10 | 0 | 10 | 0 | 0 | 0 | Plant response rating (0 to 100 scale), Barnyardgrass ([1]; 500 g ai/ha): 0; Plant response rating (0 to 100 scale), Foxtail, Giant ([2]; 500 g ai/ha): 0; Plant response rating (0 to 100 scale), Kochia (kochia (Kochia scoparia) [3]; 500 g ai/ha): 0; Plant response rating (0 to 100 scale), Pigweed ([4]; 500 g ai/ha): 0; Plant response rating (0 to 100 scale), Ragweed ([5]; 500 g ai/ha): 0; Plant response rating (0 to 100 scale), Ryegrass, It. ([6]; 500 g ai/ha): 0; Barnyardgrass plant response rating ([10]; 500 g ai/ha): 0; Blackgrass plant response rating ([11]; 500 g ai/ha): 0; Corn plant response rating (corn (Zea mays); 500 g ai/ha): 0; Foxtail, Giant plant response rating ([12]; 500 g ai/ha): 0; Galium plant response rating ([13]; 500 g ai/ha): 20; Kochia plant response rating (kochia (Kochia scoparia) [14]; 500 g ai/ha): 0; Pigweed plant response rating ([15]; 500 g ai/ha): 30; Ragweed plant response rating ([16]; 500 g ai/ha): 0; Ryegrass, It. plant response rating ([17]; 500 g ai/ha): 0; Wheat plant response rating ([18]; 500 g ai/ha): 0
Cc1nn(C)c(=O)c(-c2ccc(Cl)c3sccc23)c1OC(=O)c1ccccc1 [Compound 57] | 0 | 0 | 0 | 0 | 0 | 10 | 0 | 0 | 0 | 0 | 0 | 0 | 0 | 0 | 0 | 0 | 0 | 0 | 0 | 0 | Plant response rating (0 to 100 scale), Barnyardgrass ([1]; 31 g ai/ha): 0; Plant response rating (0 to 100 scale), Foxtail, Giant ([2]; 31 g ai/ha): 0; Plant response rating (0 to 100 scale), Kochia (kochia (Kochia scoparia) [3]; 31 g ai/ha): 50; Plant response rating (0 to 100 scale), Pigweed ([4]; 31 g ai/ha): 0; Plant response rating (0 to 100 scale), Ragweed ([5]; 31 g ai/ha): 0; Plant response rating (0 to 100 scale), Ryegrass, It. ([6]; 31 g ai/ha): 0; Barnyardgrass plant response rating ([10]; 31 g ai/ha): 0; Blackgrass plant response rating ([11]; 31 g ai/ha): 0; Corn plant response rating (corn (Zea mays); 31 g ai/ha): 0; Foxtail, Giant plant response rating ([12]; 31 g ai/ha): 0; Galium plant response rating ([13]; 31 g ai/ha): 0; Kochia plant response rating (kochia (Kochia scoparia) [14]; 31 g ai/ha): 0; Pigweed plant response rating ([15]; 31 g ai/ha): 0; Ragweed plant response rating ([16]; 31 g ai/ha): 0; Ryegrass, It. plant response rating ([17]; 31 g ai/ha): 0; Wheat plant response rating ([18]; 31 g ai/ha): 0
Cc1cc2c(-c3c(O)c(C)nn(C)c3=O)c(C)ccc2s1 [Compound 72] | 30 | 40 | 40 | 70 | 90 | 100 | 0 | 0 | 0 | 0 | 40 | 80 | 0 | 60 | 100 | 90 | 90 | 90 | 100 | 0 | Plant response rating (0 to 100 scale), Barnyardgrass ([1]; 31 g ai/ha): 0; Plant response rating (0 to 100 scale), Foxtail, Giant ([2]; 31 g ai/ha): 0; Plant response rating (0 to 100 scale), Kochia (kochia (Kochia scoparia) [3]; 31 g ai/ha): 0; Plant response rating (0 to 100 scale), Pigweed ([4]; 31 g ai/ha): 70; Plant response rating (0 to 100 scale), Ragweed ([5]; 31 g ai/ha): 70; Plant response rating (0 to 100 scale), Ryegrass, It. ([6]; 31 g ai/ha): 90; Barnyardgrass plant response rating ([10]; 31 g ai/ha): 30; Blackgrass plant response rating ([11]; 31 g ai/ha): 40; Plant response rating (0 to 100 scale), Corn (corn (Zea mays); [19]): 0; Plant response rating (0 to 100 scale), Foxtail, Giant [12, 19]: 30; Plant response rating (0 to 100 scale), Galium [13, 19]: 90; Plant response rating (0 to 100 scale), Kochia (kochia (Kochia scoparia) [14]; [19]): 70; Plant response rating (0 to 100 scale), Pigweed [15, 19]: 90; Plant response rating (0 to 100 scale), Ragweed [16, 19]: 70; Plant response rating (0 to 100 scale), Ryegrass, It. [17, 19]: 90; Plant response rating (0 to 100 scale), Wheat [18, 19]: 0
